{"source": "patent EP3996814B1", "about": "“USE OF A HERBAL EXTRACT COMPRISING VERBASCOSIDE AND AUCUBIN FOR THE TREATMENT OF OSTEOARTHRITIS OF THE KNEE” (Labiotre S.r.l., priority 2019, dated 2021)", "key": {"[1]": {"assay": "Safety in the clinical study (treatment-emergent adverse events, laboratory tests)", "assay_type": "in vivo, human", "conditions": "oral 200 mg/day for 2 weeks, n = 50", "procedure": "(§1) The inclusion criteria were as follows: 1) presence of symptoms for at least one month, 2) number of leukocytes in synovial fluid < 2000/ml, 3) pain on a visual analogue scale (VAS) ≥ 2 at rest and 4) duration of stiffness in the morning ≤ 30 min. The following exclusion criteria were applied: 1) pregnancy or breastfeeding, 2) history of severe renal, hepatic, cardiac, gastrointestinal or haematological diseases, 3) presence of malignant tumours, 4) presence of neurological or psychiatric disorders, 5) atopy or allergic disorders, 6) diabetes mellitus or other endocrine disorders, 7) coagulation disorders, 8) history of peptic ulcer disease, 9) use of corticosteroid in the four weeks prior to the study and 10) use of NSAIDs in the two weeks prior to the study. According to the Kellgren-Lawrence classification system, 61.3% and 38.7% of patients in the study had scores of 1 and 2, respectively.\nSafety was evaluated by recording treatment-emergent adverse events and changes with respect to the baseline in clinical laboratory tests, in vital signs and in objective examinations, all of which were performed during visits at weeks 1 and 2. Clinically relevant changes in laboratory values were defined as: • aspartate aminotransferase (AST) and/or alanine transaminase (ALT) ≥ 3 × upper limit of normal (ULN), • creatinine ≥ 1.3 × ULN, • blood urea nitrogen (BUN) ≥ 2 × ULN, • decrease in haematocrit value ≥ 5 percentage points with respect to the baseline and • decrease in haemoglobin value ≥ 2 g/dl from baseline."}, "[2]": {"test_system": "patients with mild to moderate osteoarthritis of the knee", "assay": "Randomised, single-blind, active-controlled pilot clinical study, clinical endpoints (VAS, range of motion, WOMAC)", "assay_type": "in vivo, human", "conditions": "oral 200 mg/day, n = 50; for WOMAC scores Stiffness: range 0-8; for WOMAC scores Pain: range 0-20; for WOMAC scores Physical functionality: range 0-68; for WOMAC scores Total: range 0 to 96", "procedure": "as §1\nThe study period was two weeks.\nPatients (n = 150) were randomised into three study groups (1:1:1 ratio). The randomisation sequence was generated by a special software.\nA total of three assessments were performed (at baseline, one week and at the end of the 2-week treatment period).\nClinical endpoints included: • 1) patient's evaluation of the arthritis pain score (VAS) at rest (range: 0-10; where 0 is no pain and 10 is maximum pain), • 2) patient's evaluation of the arthritis pain score (VAS) at movement (range: 0-10; where 0 is no pain and 10 is maximum pain), • 3) joint motion range (degrees) and • 4) WOMAC (Western Ontario and McMaster University) index score [Salaffi et al. Osteoarthritis cartilage 2003; 11: 551-60].\nWOMAC score consists of sub-scales that measure pain (range: 0-20; where 0 is no pain and 20 is the maximum pain), stiffness (range: 0-8, where 0 is no stiffness and 8 is the maximum stiffness) and physical functionality (range: 0-68, where 0 is the best functionality and 68 is the worst functionality). The resulting total composite score ranges from 0 to 96."}, "[3]": {"test_system": "PGE2", "assay": "PGE2 enzyme immunoassay in LPS-stimulated neutrophils", "assay_type": "cell-based, human", "conditions": "5 µg/ml of LPS plus test substance 1%, 24 hours", "description": "Human neutrophils were isolated from whole blood samples taken from 10 healthy volunteers (5 men and 5 women, mean age: 34.1 ± 3.7 years) using the EasySep™ Direct human neutrophil isolation kit ([sequence] Technologies, Vancouver, Canada). After isolation, neutrophils were resuspended at a concentration of 5 * 10^6 cells/ml in Hank's balanced saline solution (37°C) containing 10 mM of HEPES pH 7.4, 1.6 mM Ca^2+ and not Mg^2+.\nExperiments were conducted on RPMI medium (RPMI: Rosewell Park Memorial Institute, cation-deficient medium Ca2+ and Mg2+ commonly used for white blood line cells) supplemented with 1% fetal bovine serum (37°C, 5% CO2, 95% humidity) after seeding neutrophils (5x10^5 cells/well) in a 96-well plate.\nEvaluation of PGE2 concentrations in each well under six different experimental conditions was conducted using a commercially available competitive PGE2 enzyme immunoassay kit (GE Healthcare, Milwaukee, WI, USA). All tests were conducted three times."}, "[4]": {"test_system": "human neutrophils", "assay": "MTT cell viability test", "assay_type": "cell-based", "conditions": "1% solution, 24 hours; untreated cells = 100%", "procedure": "Human neutrophils were isolated from whole blood samples taken from 10 healthy volunteers (5 men and 5 women, mean age: 34.1 ± 3.7 years) using the EasySep™ Direct human neutrophil isolation kit ([…] Technologies, Vancouver, Canada). After isolation, neutrophils were resuspended at a concentration of 5 * 10^6 cells/ml in Hank's balanced saline solution (37°C) containing 10 mM of HEPES pH 7.4, 1.6 mM Ca^2+ and not Mg^2+.\nCell viability was determined using the MTT test kit (Promega, Madison, WI, USA) according to the manufacturer's protocol (MTT: 3-(4,5-dimethylthiazol-2-yl)-2,5-diphenyltetrazolium bromide). In order to determine the cytotoxicity of the herbal extract of the invention, the cells were incubated with aqueous solutions of the herbal extract of the invention at three different concentrations (1%, 3% and 5%) for 24 hours. The cultures of the control group were not treated and the viability thereof was set to 100%. […] Int J Pharm Sei (2012) 3: 2325-2336]. […] Absorbance was subsequently measured with a microplate reader (Bio-Tek, Winooski, VT, USA) at a test wavelength of 595 nm and a reference wavelength of 690 nm. The optical density (OD) was calculated as the […]. The viability percentage was calculated using the following formula: (OD of treated sample / control OD) x 100."}, "[5]": {"test_system": "substance P", "assay": "Serum substance P levels (ELISA) in the clinical study", "conditions": "oral 200 mg/day, n = 50"}}}
{"smiles": "Cc1ccc(-c2cc(C(F)(F)F)nn2-c2ccc(S(N)(=O)=O)cc2)cc1", "note": "[Celecoxib]", "values": [{"measurement": "Gastrointestinal adverse events: Constipation", "setting": "[1]", "result": "2 (4%) number of patients (percentages in brackets)"}, {"measurement": "Gastrointestinal adverse events: Nausea", "setting": "[1]", "result": "2 (4%) number of patients (percentages in brackets)"}, {"measurement": "Other adverse events: Headache", "setting": "[1]", "result": "3 (6%) number of patients (percentages in brackets)"}, {"measurement": "Other adverse events: Itching", "setting": "[1]", "result": "1 (2%) number of patients (percentages in brackets)"}, {"measurement": "changes with respect to the baseline in laboratory safety tests", "setting": "[1]", "result": "no changes with respect to the baseline"}, {"measurement": "Pain at motion, VAS (0-10)", "setting": "[2]; Baseline", "result": "3.8 ± 0.6"}, {"measurement": "Pain at rest, VAS (0-10)", "setting": "[2]; Baseline", "result": "2.9 ± 0.4"}, {"measurement": "Range of motion (degrees)", "setting": "[2]; Baseline", "result": "134 ± 10", "unit": "degrees"}, {"measurement": "WOMAC scores Stiffness", "setting": "[2]; Baseline", "result": "1.4 ± 0.3"}, {"measurement": "WOMAC scores Pain", "setting": "[2]; Baseline", "result": "5.7 ± 0.8"}, {"measurement": "WOMAC scores Physical functionality", "setting": "[2]; Baseline", "result": "20.5 ± 3.2"}, {"measurement": "WOMAC scores Total", "setting": "[2]; Baseline", "result": "27.6 ± 3.8"}, {"measurement": "Pain at motion, VAS (0-10)", "setting": "[2]; End of study (2 weeks)", "result": "2.2 ± 0.4"}, {"measurement": "Pain at rest, VAS (0-10)", "setting": "[2]; End of study (2 weeks)", "result": "1.5 ± 0.4"}, {"measurement": "Range of motion (degrees)", "setting": "[2]; End of study (2 weeks)", "result": "173 ± 19", "unit": "degrees"}, {"measurement": "WOMAC scores Stiffness", "setting": "[2]; End of study (2 weeks)", "result": "0.7 ± 0.1"}, {"measurement": "WOMAC scores Pain", "setting": "[2]; End of study (2 weeks)", "result": "3.0 ± 0.9"}, {"measurement": "WOMAC scores Physical functionality", "setting": "[2]; End of study (2 weeks)", "result": "11.4 ± 1.7"}, {"measurement": "WOMAC scores Total", "setting": "[2]; End of study (2 weeks)", "result": "15.1 ± 2.2"}, {"measurement": "Pain at motion, VAS (0-10)", "setting": "[2]; One week", "result": "2.9 ± 0.5"}, {"measurement": "Pain at rest, VAS (0-10)", "setting": "[2]; One week", "result": "2.0 ± 0.3"}, {"measurement": "Range of motion (degrees)", "setting": "[2]; One week", "result": "160 ± 15", "unit": "degrees"}, {"measurement": "WOMAC scores Stiffness", "setting": "[2]; One week", "result": "1.0 ± 0.2"}, {"measurement": "WOMAC scores Pain", "setting": "[2]; One week", "result": "4.1 ± 0.9"}, {"measurement": "WOMAC scores Physical functionality", "setting": "[2]; One week", "result": "14.6 ± 2.1"}, {"measurement": "WOMAC scores Total", "setting": "[2]; One week", "result": "19.7 ± 2.9"}, {"measurement": "PGE2 levels", "setting": "[3]", "result": "19.21 ± 2.39", "unit": "pg/well"}, {"measurement": "cell viability (MTT), % of the control value", "setting": "[4]", "result": "90 ± 2", "unit": "%"}, {"measurement": "SP (serum substance P)", "setting": "[5]; Baseline", "result": "436 ± 95", "unit": "pg/mL"}, {"measurement": "SP (serum substance P)", "setting": "[5]; End of study (2 weeks)", "result": "299 ± 64", "unit": "pg/mL"}, {"measurement": "SP (serum substance P)", "setting": "[5]; One week", "result": "358 ± 78 † pg/ml"}]}
